The target in test [1] is T1, Pry1 (Saccharomyces cerevisiae, UniProt P47032).
T1 construct: made in house; host or cells: Escherichia coli BL21
T1 sequence (P47032 20-299): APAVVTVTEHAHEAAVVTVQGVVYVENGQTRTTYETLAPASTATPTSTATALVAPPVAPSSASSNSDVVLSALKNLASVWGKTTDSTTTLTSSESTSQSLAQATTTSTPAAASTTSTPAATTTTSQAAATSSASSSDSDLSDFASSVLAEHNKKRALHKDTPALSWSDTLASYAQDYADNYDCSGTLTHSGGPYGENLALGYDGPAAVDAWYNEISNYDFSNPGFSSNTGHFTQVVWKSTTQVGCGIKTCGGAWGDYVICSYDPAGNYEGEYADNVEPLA
The test can be described thus: Microscale thermophoresis. Conditions: His-tagged Pry1, N/A where there is no binding, mean ± SD of three experiments. On the procedure: (§1) Microscale thermophoresis was performed using a Monolith NT.115 from Nanotemper Technologies (Munich, Germany) (Seidel et al., [2012]; Shang et al., [2012]; Zillner et al., [2012]). His-tagged protein (Pry1 or Na-ASP-2) was fluorescently labeled using the RED-tris-NTA His-tag protein labeling kit (Nanotemper Technologies). Labeled protein (Pry1 or Na-ASP-2) was subsequently added to serial dilution of unlabeled ligand (ascarosides or their fatty acid moieties) in binding buffer (20 mM Tris pH 7.5, 30 mM NaCl, 0.05% Triton X-100). Each sample was loaded into standard glass capillaries, and measurements were performed at 60% laser power setting. Dissociation constant Kd was obtained by plotting the normalized fluorescence (Fnorm) against the logarithm of ligand concentration. Experiments were performed in triplicates and the Kd model of the MO Affinity Analysis software (Nanotemper Technologies, Munich, Germany) was used for data fitting.
(§2) Figure 5 Na-ASP-2 selectively binds ascr#3 but not oscr#10. Binding of ascarosides and their fatty acid moieties by Pry1 and Na-ASP-2 as measured by microscale thermophoresis. (A,G) Palmitic acid; (B,H) ascr#3; (C,I) oscr#10; (D,J) (R)-8-hydroxynonanoic acid; (E,K) (R, E)-8-hydroxynon-2-enoic acid; (F,L) 9-hydroxynonanoic acid. Pry1 binds palmitic acid and free hydroxylated nanonoic acids with similar affinities but binds neither the ascarosides ascr#3 and oscr#10. Na-ASP-2 binds palmitic acid, ascr#3 and free hydroxylated nanonoic acids with similar affinities but not oscr#10. The Kd values are indicated in each figure with N/A (not applicable) where there is no binding. Data represent mean ± SD of three independent experiments.
On the technique in general: Microscale thermophoresis detects binding through changes in fluorescence in a small temperature gradient.

Test [2] has as its target Pry1. More on the design: method as in earlier work. Conditions: ref Kelleher et al., 2014, Darwiche et al., 2016, 2018, Asojo et al., read-out: Kd for palmitic acid; cited from earlier work.
In a further test the target is tablysin-15. Conditions: ref Kelleher et al., 2014, Darwiche et al., 2016, 2018, Asojo et al., read-out: Kd for palmitic acid; cited from earlier work.
In test [3] the target is Bm-VAL-1. More on the design: method as in earlier work. Conditions: ref Kelleher et al., 2014, Darwiche et al., 2016, 2018, Asojo et al., read-out: Kd for palmitic acid; cited from earlier work.
In test [4] the target is T2, Na-ASP-2 (Necator americanus, UniProt Q7Z1H1). The test can be described thus: [3H]-palmitic acid radioligand binding and competition assay. Conditions: for competition with [3H]-palmitic acid for binding to Na-ASP-2: 50 or 500 pmol unlabeled ligand vs 50 pmol [3H]-palmitic acid, 100 pmol Na-ASP-2. As for the experimental part: (§3) The radioligand binding assay was performed as described previously (Im et al., [2005]; Choudhary and Schneiter, [2012]). Hundred pmol of purified untagged CAP protein (Na-ASP-2 or Pry1) in binding buffer (20 mM Tris, pH 7.5, 30 mM NaCl, 0.05% Triton X-100) was incubated for 1 h at 30 °C with different concentrations of either [^3H]-cholesterol or [^3H]-palmitic acid. Protein was removed from unbound ligand by adsorption to Q-sepharose beads (GE Healthcare, USA), the beads were washed, protein was eluted and the protein-bound radioligand was quantified by scintillation counting. For competition binding assays, specified concentrations of unlabeled cholesterol, palmitic acid or ligands, were included in the binding reaction. Non-specific binding was determined by performing the assays without the addition of protein. Statistical significance of data was analyzed by multiple t-test (GraphPad Prism, La Jolla, CA).
T2 sequence (Q7Z1H1 entry or part of it): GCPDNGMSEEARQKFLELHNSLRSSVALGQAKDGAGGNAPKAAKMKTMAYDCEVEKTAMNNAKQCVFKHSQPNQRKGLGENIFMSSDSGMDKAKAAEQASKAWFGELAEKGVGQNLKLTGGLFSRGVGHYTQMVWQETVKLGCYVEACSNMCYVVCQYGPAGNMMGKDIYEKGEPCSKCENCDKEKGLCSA
Figure 3 Na-ASP-2 binds both cholesterol and free palmitic acid. (A) Ligand binding of [^3H]-cholesterol to Na-ASP-2. Purified Na-ASP-2 (100 pmol) was incubated with increasing concentrations of [^3H]-cholesterol (100–400 pmol), in absence and presence of 400 pmol of unlabeled cholesterol (chol). The protein was separated from the unbound ligand by adsorption to an anion-exchange matrix and the protein-bound radioligand was quantified by scintillation counting. […] Data represent mean ± SD of 3 independent experiments. […] Binding of [^3H]-cholesterol (50 pmol) to Na-ASP-2 (100 pmol) was assessed in the presence of the indicated concentrations of unlabeled cholesterol (chol). […] Binding of [^3H]-palmitic acid (50 pmol) to Na-ASP-2 (100 pmol) was assessed in the presence of the indicated concentration of unlabeled palmitic acid (pal). […]
(§4) Figure 4 Binding of ligands to Na-ASP-2 and Pry1. […] Binding of [^3H]-cholesterol (50 pmol) to Na-ASP-2 (100 pmol) was assessed in the presence of (50 pmol and 500 pmol) of unlabeled ascarosides or fatty acid moieties (1-5) (B) Fatty acids moieties and ascr#3 compete with [^3H]-palmitic acid for binding to Na-ASP-2. […]

Test [5] has as its target T2, Na-ASP-2. Put plainly: Microscale thermophoresis. Format: binding. On the procedure:
as §1, §2

In test [6] the target is Bm-VAL-1. More on the design: method as in earlier work. The following applies: ref Kelleher et al., 2014, Darwiche et al., 2016, 2018, Asojo et al., read-out: cholesterol binding affinity; cited from earlier work.
The target of another test is Hp-VAL-4. More on the design: method as in earlier work. Conditions: ref Kelleher et al., 2014, Darwiche et al., 2016, 2018, Asojo et al., read-out: cholesterol binding affinity; cited from earlier work.
Test [7] concerns the target T2, Na-ASP-2. The test can be described thus: [3H]-cholesterol radioligand binding and competition assay. Conditions: for competition with [3H]-cholesterol for binding to Na-ASP-2: unlabeled ligand vs 50 pmol [3H]-cholesterol, 100 pmol Na-ASP-2. On the procedure: as §3
Figure 3 Na-ASP-2 binds both cholesterol and free palmitic acid. (A) Ligand binding of [^3H]-cholesterol to Na-ASP-2. Purified Na-ASP-2 (100 pmol) was incubated with increasing concentrations of [^3H]-cholesterol (100–400 pmol), in absence and presence of 400 pmol of unlabeled cholesterol (chol). The protein was separated from the unbound ligand by adsorption to an anion-exchange matrix and the protein-bound radioligand was quantified by scintillation counting. […] Data represent mean ± SD of 3 independent experiments. (B) Competitive binding of unlabeled cholesterol (50 or 5,000 pmol) to Na-ASP-2. Binding of [^3H]-cholesterol (50 pmol) to Na-ASP-2 (100 pmol) was assessed in the presence of the indicated concentrations of unlabeled cholesterol (chol). Each data point is the average of duplicate assays and represents the amount of [^3H]-cholesterol bound relative to a control containing no unlabeled cholesterol. (C) Ligand binding of [^3H]-palmitic acid to Na-ASP-2. Purified Na-ASP-2 (100 pmol) was incubated with increasing concentrations of [^3H]-palmitic acid (100–400 pmol), in absence and presence of 400 pmol of unlabeled palmitic acid (pal). (D) Competitive binding of unlabeled palmitic acid (50 or 5,000 pmol) to Na-ASP-2. Binding of [^3H]-palmitic acid (50 pmol) to Na-ASP-2 (100 pmol) was assessed in the presence of the indicated concentration of unlabeled palmitic acid (pal). Each data point is the average of duplicate assays and represents the amount of [^3H]-palmitic acid bound relative to a control containing only labeled palmitic acid. […]
as §4

Another test addresses Sm-VAL-4. More on the design: method as in earlier work. Conditions: ref Kelleher et al., 2014, Darwiche et al., 2016, 2018, Asojo et al., read-out: cholesterol binding affinity; cited from earlier work.
The target in test [8] is T1, Pry1. The test can be described thus: [3H]-palmitic acid competition binding assay. The following applies: 100 pmol Pry1; for competition with [3H]-palmitic acid for binding to Pry1, excess ligand: excess unlabeled ligand (500 pmol) vs 50 pmol [3H]-palmitic acid; for competition with [3H]-palmitic acid for binding to Pry1: unlabeled ligand vs 50 pmol [3H]-palmitic acid. On the procedure: as §3
Figure 4 Binding of ligands to Na-ASP-2 and Pry1. (A) Free fatty acids and ascarosides fail to compete with [^3H]-cholesterol for binding to Na-ASP-2. Binding of [^3H]-cholesterol (50 pmol) to Na-ASP-2 (100 pmol) was assessed in the presence of (50 pmol and 500 pmol) of unlabeled ascarosides or fatty acid moieties (1-5) (B) Fatty acids moieties and ascr#3 compete with [^3H]-palmitic acid for binding to Na-ASP-2. (C) Only fatty acids moieties compete [^3H]-palmitic acid for binding to Pry1. Competitive binding was tested with either 50 or 500 pmol of the unlabeled ligands and 50 pmol of [^3H]-palmitic acid for binding to 100 pmol purified Na-ASP-2 or Pry1. The ascarosides tested are (1) (ascr#3) and (2) (oscr#10) while the fatty acids are 3 [(R)-8-hydroxynonanoic acid], 4 [(R, E)-8-hydroxynon-2-enoic acid], and 5 (9-hydroxynonanoic acid). Data represent mean ± SD of 3 independent experiments. Asterisks denote statistical significance relative to the control containing only the radiolabeled ligand and either purified Na-ASP-2 or Pry1. (**p < 0.001; *p < 0.01). n.s., not significant.

Data on seven compounds can be found in paper PMC7773830, “Necator americanus Ancylostoma Secreted Protein-2 (Na-ASP-2) Binds an Ascaroside (ascr#3) in Its Fatty Acid Binding Site” (Frontiers in Chemistry, 2020).

Like-named read-outs stand apart in the source and are kept apart here.

Regarding `CCCCCCCCCCCCCCCC(=O)O` [palmitic acid, reference compound], the Kd on Pry1 [1] (read-out: Kd) was 120 ± 1.2 µM; at Pry1 [2], 112 µM; on tablysin-15, 94 µM; at Bm-VAL-1 [3], 83 µM; at Na-ASP-2 [4], 95 µM; on Na-ASP-2 [5], 220 ± 1 µM. At Na-ASP-2 [4], the “competition with [3H]-palmitic acid for binding to Na-ASP-2” value is “reduced”.
As to `C[C@@H](O)CCCC/C=C/C(=O)O` [(R,E)-8-hydroxynon-2-enoic acid, (R, E)-8-hydroxynon-2-enoic acid], the Kd at Pry1 [1] (read-out: Kd) was 900 ± 0.9 µM; at Na-ASP-2 [5], 290 ± 2 µM.
For `C[C@@H](O)CCCCCCC(=O)O` [(R)-8-hydroxynonanoic acid] the same measures were 600 ± 1.9 µM and 500 ± 2.3 µM.
As for `CC(C)CCC[C@@H](C)[C@H]1CC[C@H]2[C@@H]3CC=C4C[C@@H](O)CC[C@]4(C)[C@H]3CC[C@]12C` [cholesterol], the Kd at Bm-VAL-1 [6] was 0.9 µM; on Hp-VAL-4, 1.53 µM; at Na-ASP-2 [7], 2.1 µM; at Sm-VAL-4 it was 2.4 µM. For the same compound, the “competition with [3H]-cholesterol for binding to Na-ASP-2” value (from here on “competition with [3H]-cholesterol”) at Na-ASP-2 [7] is “reduced binding of the radioligand”.
Take `O=C(O)CCCCCCCCO` [9-hydroxynonanoic acid]: the Kd came to 650 ± 1.7 µM on Pry1 [1] (read-out: Kd) and 230 ± 2.5 µM on Na-ASP-2 [5].
For the compound `C[C@H](CCCC/C=C/C(=O)O)O[C@@H]1O[C@@H](C)[C@H](O)C[C@H]1O` [ascr#3], on Pry1 [8], the “competition with [3H]-palmitic acid for binding to Pry1, excess ligand” value is recorded as “could not be competed” and the “competition with [3H]-palmitic acid for binding to Pry1” value was “neither ascr#3 (1) nor oscr#10 (2) bound”. Also, the Kd entry at Pry1 [1] is listed as “does not bind”. The “competition with [3H]-cholesterol” value at Na-ASP-2 [7] was “neither ascarosides [ascr#3 (1) and oscr#10 (2)] nor fatty acids (3-5) competed”. The “competition with [3H]-palmitic acid for binding to Na-ASP-2” value on Na-ASP-2 [4] is “competed”. On Na-ASP-2 [5], the Kd turned out to be 142 µM.
For `C[C@@H]1O[C@@H](OCCCCCCCCC(=O)O)[C@H](O)C[C@H]1O` [oscr#10], on Pry1 [8], the “competition with [3H]-palmitic acid for binding to Pry1, excess ligand” value is given as “could not be competed” and the “competition with [3H]-palmitic acid for binding to Pry1” value was “neither ascr#3 (1) nor oscr#10 (2) bound”. The Kd result at Pry1 [1] was “does not bind”. Besides, the “competition with [3H]-cholesterol” value on Na-ASP-2 [7] is “neither ascarosides [ascr#3 (1) and oscr#10 (2)] nor fatty acids (3-5) competed”. At Na-ASP-2 [5] (microscale thermophoresis, His-tagged Na-ASP-2, N/A where there is no binding, mean ± SD of three experiments), the Kd result was “does not bind”.
